How the values were obtained:
Type in all cases: physicochemical
[1] = Solubility of PAG in organic solvents (solvent added until completely dissolved); conditions: for Solubility (w/v %) Cyclohexanone / Solubility (w/v %) PGMEA / Solubility (w/v %) GBL: 20° C.; for Solubility (w/v %) PGMEA / Solubility (w/v %) in PGMEA: Propylene glycol monomethyl ether acetate; for Solubility (w/v %) PGMEA: Table 8; for Solubility (w/v %) in PGMEA: Table 7; for Solubility (w/v %) GBL: γ-Butyrolactone; for Solubility in organic solvents (in words): PGMEA, cyclohexanone, GBL
Description: Solubility is an important factor in the evaluation of a PAG. High solubility not only makes a PAG purified readily but also enables a PAG to be used for a wide range of concentrations in photoresists and in varied solvent systems. To test the solubility of a PAG, a solvent is slowly added until the PAG is completely dissolved and no turbidity is observed in the clear solution. Table 8 lists the solubility (w/v %) of some representative N-hydroxynaphthalimide sulfonate derivatives versus NIT in various organic solvents at 20° C. […] All compounds except for S-6 and O-12 show much higher solubility than the commercial benchmark (NIT).

[2] = Photoreactivity: photolysis of PAGs in acetonitrile at 365 nm, photoreaction constant from UV-Vis absorbance; conditions: for Relative Photoreactivity (normalized photoreaction constant) at 365 nm: acetonitrile, air, room temperature, 3×10^−5 M, NIT normalized to one; for Solubility x relative Photoreactivity: product of solubility in PGMEA and relative photoreactivity at 365 nm
Description: A photoresist composition typically comprises PAG, polymers, additives and solvents. The performance of a photoresist composition is mainly dependent on the properties of the PAG and polymer components. To formulate a high-performance photoresist composition, more photosensitive PAGs are typically selected. The photosensitivity of a PAG is typically directly related to the strength of the generated acid and the photoreactivity of the PAG. For a series of PAGs producing the same latent acid, their photosensitivity is related only to their photoreactivity. Thus evaluating the photosensitivity of a PAG can be achieved by studying its photoreactivity. The higher photoreactivity, the higher photosensitivity. The photoreactivity can be investigated by photolysis of a PAG in its dilute solution under low exposure intensity (to avoid side reactions which don't generate the desired acid). The change in the concentration of a PAG upon irradiation can be determined by measuring the absorbance of the PAG at the maximum absorption wavelength.
Photolysis of PAGs was carried out in acetonitrile in air at room temperature. The sodium salt of tetrabromophenol blue (TBPBNa), an acid indicator dye, which has a maximum absorption at 618 nm, was purchased from Aldrich (indicator grade) and used as received. Irradiation of the solution of the PAGs (3×10^−5 M) was performed using a Cole-Parmer UV 15 W bench lamp (EW-97605-50) at 365 nm. Light intensity was measured using an UV Power Puck II radiometer from EIT Inc. UV-Vis spectra were run on a Thermo Scientific Evolution 201 UV-visible spectrophotometer.
Photolysis of NIT, comparative compound A and B, S-3, and S-11 was examined in acetonitrile. The absorption band at 400 nm gradually decreases upon irradiation, indicating the progress of photoreaction with the increase of exposure dose of energy. Assuming the photoreaction is first-order, plot of natural log of changes in absorbance with exposure dose of energy gives the photoreaction constant of S-3 (i.e., the slope of the linear trendline) (FIG. 3). The photoreaction constants of other compounds were similarly determined under the same irradiation condition. Comparing the constants of A, B, S-3, and S-11 with that of NIT normalized to one gives the relative photoreactivity (Table 7). […] The formation of acid upon irradiation was confirmed by observing the spectral changes of the acid indicator, TBPBNa at 618 nm.

[3] = UV absorbance of PAG compounds (FIG. 1); conditions: for Absorbance at i-, h-, and g-lines of a mercury lamp (in words): versus NIT
Description: FIG. 1 is a graph illustrating the UV absorbance of certain PAG compounds of the invention versus the UV absorbance of certain prior art PAG compounds;
Referring to FIG. 1, the PAG compounds of the invention have excellent solubility in organic solvents and strong absorption at i-, h-, and g-lines of a mercury lamp.

Compound	Solubility (w/v %) Cyclohexanone [1] [% w/v %]	Solubility (w/v %) PGMEA [1] [% w/v %]	Solubility (w/v %) in PGMEA [1] [% w/v %]	Solubility (w/v %) GBL [1] [% w/v %]	Relative Photoreactivity (normalized photoreaction constant) at 365 nm [2]	Solubility x relative Photoreactivity [2] [%]	Solubility in organic solvents (in words) [1]	Strong absorption band [3] [nm]	Absorbance at i-, h-, and g-lines of a mercury lamp (in words) [3]
CCCCSc1ccc2c3c(cccc13)C(=O)N(OS(=O)(=O)C(F)(F)F)C2=O [Comparative A, reference compound]	4.1	1.1	1.1	0.9	13.5	14.9			
O=C1c2cccc3c(C#Cc4ccccc4)ccc(c23)C(=O)N1OS(=O)(=O)C(F)(F)F [Comparative B, reference compound]	3.5	1.0	1.0	1.1	2.5	2.5	much lower		
O=C1c2cccc3c(Oc4ccccc4)ccc(c23)C(=O)N1OS(=O)(=O)C(F)(F)F [Compound O-12]	9.0	2.0		1.6				364	much larger than that of NIT
CC(C)Sc1ccc2c3c(cccc13)C(=O)N(OS(=O)(=O)C(F)(F)F)C2=O [Compound S-3]	16.6	7.2	7.2	8.1	13.3	95.8	much higher solubility than comparative compound A	400	much larger than that of NIT
CC(C)(C)c1ccc(Sc2ccc3c4c(cccc24)C(=O)N(OS(=O)(=O)C(F)(F)F)C3=O)cc1 [Compound S-6]	5.3	1.9		1.2				400	much larger than that of NIT
COC(C)CCOC(=O)CCSc1ccc2c3c(cccc13)C(=O)N(OS(=O)(=O)C(F)(F)F)C2=O (stereo not shown) [Compound S-11]	86.4	53.9	53.9	105.7	14.2	765.4	extremely high solubility		
COC(C)CCOC(=O)CCSc1ccc2c3c(cccc13)C(=O)N(OS(=O)(=O)c1ccc(C)cc1)C2=O (stereo not shown) [Compound S-43]	37.5	11.7		67.8			extremely high solubility		
O=C1c2cccc3cccc(c23)C(=O)N1OS(=O)(=O)C(F)(F)F [NIT, N-Hydroxynaphthalimide triflate, reference compound]	5.9	1.7	1.7	2.2	1.0	1.7			

Source: patent US9383644B2, “Sulfonic acid derivative compounds as photoacid generators in resist applications” (Heraeus Precious Metals North America Daychem LLC, priority 2014, dated 2016)
